What was measured:
[1] = system: DU145 prostate carcinoma cells; experiment: Antiproliferative activity assay (crystal violet staining); assay type: cell-based; settings: Homo sapiens, DU-145, as determined after 48 h, means ± SEM, n ≥ 3, read-out: Growth inhibitory activity IC50, DU145
Experimental: (§1) Stock solutions (10 mM) prepared by dissolution in DMSO were stored at −20 °C. Working solutions were always freshly prepared before each experiment by dilution of stock solution with medium. The final DMSO concentration never exceeded 0.25%. Treatment-induced changes in cell number were determined by crystal violet (N-hexamethylpararosaniline from Sigma Aldrich) staining. 1000 cells/well (DU145) or 1500 cells/well (Hep-G2) were seeded in 96-well plates and maintained for adherence in an incubator (37 °C, 5% CO2, humidified atmosphere) for 48 h prior to the beginning of the treatment. […] Thereafter, the cells were fixed with 1% glutaraldehyde and stained with 0.1% crystal violet. The unbound dye was removed by rinsing with water. Bound crystal violet was solubilized with 0.2% Triton X-100 (Sigma-Aldrich). Light extinction of crystal violet, which increases linearly with the cell number, was analyzed at 570 nm using an ELISA-Reader (Dynex Technologies, Denkendorf, Germany). For T-cell leukemia/lymphoma cell lines apoptosis was determined using dual staining for Annexin-V and 7AAD via flow cytometry.

[2] = system: Hep-G2 hepatoblastoma cells; experiment: as above; assay type: cell-based; settings: Homo sapiens, HepG2, as determined after 48 h, means ± SEM, n ≥ 3, read-out: Growth inhibitory activity IC50, Hep-G2
Experimental: as §1

Hut78 cells = experiment: IC50 by Annexin-V/7AAD dual staining, flow cytometry; assay type: cell-based; settings: Homo sapiens, as determined after 48 h, means ± SEM, n ≥ 3, read-out: Growth inhibitory activity IC50, Hut78
Experimental: as §1

Jurkat cells = experiment: as above; assay type: cell-based; settings: Homo sapiens, as determined after 48 h, means ± SEM, n ≥ 3, read-out: Growth inhibitory activity IC50, Jurkat
Experimental: as §1

SMZ1 cells = experiment: as above; assay type: cell-based; settings: Homo sapiens, as determined after 48 h, means ± SEM, n ≥ 3, read-out: Growth inhibitory activity IC50, SMZ1
Experimental: as §1

SupT11 cells = experiment: as above; assay type: cell-based; settings: Homo sapiens, as determined after 48 h, means ± SEM, n ≥ 3, read-out: Growth inhibitory activity IC50, SupT11
Experimental: as §1

Hep-G2 cells = experiment: Unspecific cytotoxicity (LDH release); assay type: cell-based, human; settings: 1–10 µM, 3 and 24 h
DU145 cells = experiment: Western blot in DU145 cells (acetyl-H3, PARP, EGFR, P-mTOR); assay type: cell-based, human
Experimental: (§2) Western blots were performed as described earlier. Cells were seeded in 100 mm petri dishes, grown to almost confluency, treated for 24 h, washed and frozen, followed by lysis with RIPA Buffer, added with one cOmplete™ Mini protease Inhibitor tablet/10 mL (Roche), and quantification with Pierce^TM BCA Protein Assay Kit (Thermo Fisher Scientific). Thereafter protein levels were normalized to untreated controls so equal protein loading of 20 µg/lane. Laemmli Buffer and β-mercaptoethanol were added before probes were desaturated at 96 °C for 10 min. First, 7.5% or 12% SDS gels (Biorad, Munich, Germany) were loaded with proteins and electrophoresis was done. Thereafter, proteins were transferred to activated polyvinylidene difluoride membranes (PVDF) by electroblotting. Finally, the membranes were blocked with 1% BSA and incubated with primary antibodies over night at 4 °C.
Blots were washed three times with 1% TBS-Tween and incubated with anti-mouse or anti-rabbit peroxidase-coupled anti-IgG secondary antibodies (1:5000–1:10,000) at room temperature for 60 min. Subsequently, antibody bondage was illustrated using Clarity and Clarity Max ECL Western Blotting Substrates (Biorad, Munich, Germany) for detection and Celvin-S developer (Biostep, software SnapAndGo Vs 1.8.1) for development. […] Values were normalized to β-actin expression, which served as a loading control and compared to untreated control expressions which was set at 1. The mean ± SEM of the relative values to control are illustrated with Graph Pad Prism 8.

[3] = system: T-cell leukemia/lymphoma cells (Jurkat, Hut78, SMZ1, SupT11); experiment: Western blot in T-cell leukemia/lymphoma cells (acetyl-H3, acetyl-α-tubulin); assay type: cell-based, human; settings: 24 h
Experimental: as §2, with “°C. […] Only the Jurkat cells had already a high level of α-tubulin in untreated cells and, thus, drug-induced changes were not detectable in these cells.” for “°C.”
Blots were washed three times with 1% TBS-Tween and incubated with anti-mouse or anti-rabbit peroxidase-coupled anti-IgG secondary antibodies (1:5000–1:10,000) at room temperature for 60 min. […]

SMILES: O=C(CCCCCCC(=O)Nc1ccc(S(F)(F)(F)(F)F)cc1)NO [SF5-SAHA]
- IC50 [1]: 0.73 ± 1.08 µM
- IC50 [2]: 1.79 ± 1.06 µM
- IC50 (Hut78 cells): 2.4 ± 0.4 µM
- IC50 (Jurkat cells): 0.76 ± 0.06 µM
- IC50 (SMZ1 cells): 1.58 ± 0.29 µM
- IC50 (SupT11 cells): 3.08 ± 0.33 µM
- LDH release (unspecific cytotoxicity) (Hep-G2 cells): LDH levels were even decreased
- phosphorylated mTOR (P-mTOR) level (DU145 cells): reduced the level of phosphorylated (activated) mTOR
- EGFR protein expression (DU145 cells; 24 h): significant downregulation of EGFR protein expression
- PARP cleavage (DU145 cells; 24 h): detection of PARP cleavage in treated DU145 cells
- acetylated histone H3 level (DU145 cells; 24 h): dose-dependent rise of H3 acetylation
- acetyl-α-tubulin level [3]: increased in a dose-dependent way in three out of four tested cell lines
- acetylated histone H3 level [3]: Dose-dependent increases in acetylated H3 were observed in all tested leukemia/lymphoma cancer cell lines

Source: article PMC8704709, “Improved Anticancer Activities of a New Pentafluorothio-Substituted Vorinostat-Type Histone Deacetylase Inhibitor” (Pharmaceuticals, 2021)
